Source: patent US20110176998A1, “IMAGING AND THERAPY OF VIRUS-ASSOCIATED TUMORS” (THE JOHNS HOPKINS UNIVERSITY, priority 2007, published 2011)
Several values for one entry are separate records, joined by “and”; a condition that tells them apart may be missing. Equal values may be shown once.

Tests used:
[1] = test system: TK143b osteosarcoma (constitutive EBV TK); test: [125I]FIAU imaging and tissue distribution, TK143b tumors
[2] = test system: KT gastric cancer (EBV); test: [125I]FIAU imaging and tissue distribution, KT xenograft
[3] = test system: EBV(−) osteosarcoma xenografts (V143b); test: [125I]FIAU imaging, V143b control tumors; type: in vivo, mice; details: with or without bortezomib
Source text: (§1) Quantitative data were not derived from the images except for once instance that employed SPECT-CT (see below). […] The detector material or scintillator crystal is composed of NaI[Tl], which has a pixel size 2 mm×2 mm×6 mm. […] The static acquisition protocol of the LumaGEM™ software provided with the X-SPECT was used.

[4] = test system: EBV(+) Burkitt's lymphoma xenografts (Akata); test: [125I]FIAU imaging and ex vivo biodistribution, EBV(+) Akata xenografts; type: in vivo, SCID mice; details: for % ID/g derived from SPECT-CT images, tumor: bortezomib 2 μg/g, one mouse, SD from slices; for % ID/g ± SD, Blood / % ID/g ± SD, Kidney / % ID/g ± SD, Liver / % ID/g ± SD, Muscle / % ID/g ± SD, Spleen / % ID/g ± SD, Tumor: n = 4
Experimental: 5×10^6 cells were resuspended in 200 μL Matrigel Matrix (ED Biosciences, Bedford, Mass.) and injected subcutaneously near the shoulder of 6-7-week-old male severe combined immunodeficient (SCID) mice.
All work was undertaken in accordance with the regulations of Johns Hopkins Animal Care and Use Committee. Adult male SCID mice (5-6 weeks old) were purchased from the National Cancer Institute (Frederick, Md.). Three days before imaging, all mice received 1 mL intraperitoneal (i.p.) injections of 0.9% NaI solution daily for 3 consecutive days to block the thyroid uptake of free radioiodide. Twenty four hours prior to [^125I]FIAU injection, lytic induction was initiated with bortezomib. Each mouse was injected i.p. with a dose of 2 μg/g of bortezomib. Bortezomib was made fresh in PBS and filter sterilized with a 0.2 μm syringe filter (Millipore, Billerica, Mass.) immediately before each injection. Control mice were injected i.p. with PBS alone. On the day of radiotracer injection, the animals were anesthetized with 2.3 mL/kg of a mixture of 25 mg/mL ketamine and 2 mg/mL acepromazine in 0.9% saline injected i.p. Isoflurane (0.5%-1% at 0.5-1 L/minute) was administered to maintain anesthesia.
Four mice were sacrificed at each indicated time by cervical dislocation. Tumor, liver, spleen, kidney, fat, blood, and muscle were removed and weighed after which the tissue radioactivity was measured using an automated gamma counter. A 0.1 mL sample of blood was also collected. […] The standard deviation (SD) was also calculated.
as §1

[5] = test system: Rael Burkitt's lymphoma (EBV); test: [125I]FIAU imaging and tissue distribution, Rael xenografts; type: in vivo, SCID mice
Experimental: Bortezomib was always administered 24 hours before [^125I]FIAU, also intravenously. […] 2 μg/g of bortezomib stimulated the maximum target to non-target signal ratio at 96 hours after treatment in this cell line. The radioactivity depicted by the arrow in FIG. 14B at the 96 hour time point was within the tumor as shown by concurrent ex vivo gamma counting. Similar results were obtained in animals bearing another EBV(+) Burkitt cell line (Rael) xenograft. […] The percentage of injected dose per gram (% ID/g) derived from the images was 1.13±0.01 and 0.70±0.01 at 72 and 96 hours, respectively. Only one mouse was imaged with SPECT-CT, so the standard deviation (SD) values were derived from the multiple slices of each image.

[6] = test system: BCBL1 lymphoma (KSHV); test: [125I]FIAU imaging and tissue distribution, BCBL1 xenograft; type: in vivo, SCID mice
Source text: (§2) The approach observed in EBV-associated tumors is also applicable to other KSHV-associated tumors as shown in studies on two primary effusion lymphoma (PEL) cell lines that harbor KSHV. […] Finally, when induction with bortezomib was followed by treatment with [^131I]FIAU tumors regressed (FIG. 19C).

[7] = test system: BC3 lymphoma (KSHV); test: [125I]FIAU imaging and tissue distribution, BC3 xenograft; type: in vivo, SCID mice
Source text: as §2

[8] = test system: EBV(+) Burkitt's lymphoma cell line (Akata); test: tumor growth, EBV(+) Burkitt's lymphoma (Akata) xenografts; type: in vivo, SCID mice; details: bortezomib followed by [131I]FIAU; second cell line
Experimental: (§3) Therefore, an evaluation of a therapeutic isotope was carried out. As described above, SCID mice engrafted with EBV Burkitt's lymphoma xenografts received either buffer or bortezomib followed the next day by treatment with [^131I]FIAU or no treatment. […] Thus, bortezomib allowed targeting of [^131I]FIAU with therapeutic effect. Other proteasome inhibitors are also likely to be active. Several are in clinical trial.

[9] = test system: human osteosarcoma 143B cells expressing EBV TK; test: tumor growth, EBV-TK expressing 143B tumors; type: in vivo, mice
Experimental: To determine whether EBV-TK mediated concentration of radioisotope in tumor tissue was adequate to achieve a therapeutic effect, mice with tumors were treated with [^131I]FIAU or buffered saline (FIG. 18A-18C).
(§4) Biostatistics. Linear regression and curve fitting were undertaken carried using GraphPad Prism software version 5.00 for Windows, GraphPad Software, San Diego Calif. USA, www.graphpad.com.

[10] = test system: KSHV(+) primary effusion lymphoma (BCBL1); test: tumor growth, KSHV(+) primary effusion lymphoma (BCBL1) xenograft; type: in vivo, SCID mice; details: bortezomib induction followed by [131I]FIAU
Source text: as §2

[11] = test system: EBV(+) gastric adenocarcinoma (KT); test: tumor growth, EBV(+) gastric adenocarcinoma (KT) xenograft; details: bortezomib induction followed by [131I]FIAU
Experimental: Bortezomib was administered intravenously at 1.67 μg/gram. […] For imaging or treatment, FIAU was administered 24 hours after bortezomib. In each of the experiments described bortezomib was administered as a single dose.

[12] = scale-up of mouse biodistribution data to the human, MIRD dosimetry (OLINDA)
Source text: Murine biodistribution data were converted to equivalent human data for dosimetry by assuming that the organ or tumor to whole-body concentration ratio in the mouse is equivalent to that in the human.
The initial (i.e., 2-h) activity concentration in the mouse tumor of 1.95% ID/g becomes 7×10^−4% ID/g, assuming a 1 gm tumor in the human. At this concentration, and assuming negligible biological clearance of ^131I, as shown in the biodistribution data, the absorbed dose per administered activity to a 1 gm tumor in a 70 kg human is 0.1 mGy/MBq (0.38 rad/mCi). […] The 5 to 20 GBq (135 to 540 mCi) required to deliver this dose-range is well within normal organ tolerance given the normal organ absorbed dose estimates listed in the table. A total administered activity of 20 GBq would result in 0.2 and 0.02 Gy to the kidneys and red marrow, respectively. Based on external beam and radiopeptide experience, the kidneys can tolerate 25 to 27 Gy before the onset of toxicity; the red marrow maximally tolerated dose is 2 Gy. Administration of a 540 mCi dose would likely present logistical problems, but these could be accommodated by fractioning the administration over three to four injections.

[13] = test system: EBV(+) Burkitt's lymphoma (Rael); test: tumor growth, EBV(+) Burkitt's lymphoma (Rael) xenografts; type: in vivo, SCID mice
Experimental: as §3, §4

[14] = TK143b, constitutive EBV TK, 4 days p.i., 5 μCi, N 3
[15] = KT, bortezomib induction, 4 days p.i., 5 μCi, N 3
[16] = Rael, bortezomib induction, 4 days p.i., 5 μCi, N 4
[17] = bortezomib induction, 4 days p.i., 5 μCi, N 5
[18] = bortezomib induction, 5 days p.i., 5 μCi, N 3
[19] = total administered activity of 20 GBq

O=c1[nH]c(=O)n([C@@H]2O[C@H](CO)[C@@H](O)[C@@H]2F)cc1[125I] [[^125I]FIAU, [^125I]2-fluoro-2′-deoxy-beta-D-5-iodouracil-arabinofuranoside]
initial activity concentration in the mouse tumor ([1]; 2-h): 1.95 % ID/g | tumor to muscle ratio ([1]; 2 hours post-infusion): 4.6 | tumor to muscle ratio ([1]; 24 hours post-infusion (peak)): 205 | tumor to muscle ratio ([1]; 96 hours post-infusion): 114 | % ID/g ± SD, Kidney [1, 14]: 0.033 ± 0.058 % ID/g | % ID/g ± SD, Liver [1, 14]: 0.013 ± 0.006 % ID/g | % ID/g ± SD, Muscle [1, 14]: 0.015 ± 0.014 % ID/g | % ID/g ± SD, Spleen [1, 14]: 0.027 ± 0.015 % ID/g | % ID/g ± SD, Tumor [1, 14]: 1.667 ± 0.681 % ID/g | tumor imaging ([1]; cell line engineered to express constitutively the EBV-TK): readily imaged | radioactivity levels in the tumor ([1]; from 2 hours until last time point at 96 hours): remained constant | range of uptake as % ID/g (color bar), SPECT-CT ([2]; KT tumor, 72 hours p.i., following bortezomib): 0.68 % ID/g | % ID/g ± SD, Kidney [2, 15]: 0.090 ± 0.030 % ID/g | % ID/g ± SD, Liver [2, 15]: 0.050 ± 0.017 % ID/g | % ID/g ± SD, Muscle [2, 15]: 0.080 ± 0.062 % ID/g | % ID/g ± SD, Spleen [2, 15]: 0.080 ± 0.035 % ID/g | % ID/g ± SD, Tumor [2, 15]: 0.598 ± 0.472 % ID/g | tumor uptake on imaging [3]: No tumor uptake was evident | % ID/g derived from SPECT-CT images, tumor ([4]; 72 hours after radiopharmaceutical): 1.13±0.01 % ID/g | increase of tumor uptake over baseline after bortezomib ([4]; 96 h, bortezomib vs PBS): ~22 fold | % ID/g derived from SPECT-CT images, tumor ([4]; 96 hours after radiopharmaceutical): 0.70±0.01 % ID/g | % ID/g ± SD, Blood ([4]; Bortezomib treatment, 96 h): 0.022 ± 0.010 % ID/g | % ID/g ± SD, Kidney ([4]; Bortezomib treatment, 96 h): 0.070 ± 0.010 % ID/g | % ID/g ± SD, Liver ([4]; Bortezomib treatment, 96 h): 0.016 ± 0.002 % ID/g | % ID/g ± SD, Muscle ([4]; Bortezomib treatment, 96 h): 0.040 ± 0.005 % ID/g | % ID/g ± SD, Spleen ([4]; Bortezomib treatment, 96 h): 0.060 ± 0.011 % ID/g | % ID/g ± SD, Tumor ([4]; Bortezomib treatment, 96 h): 0.85 % ID/g and 0.850 ± 0.102 % ID/g | % ID/g ± SD, Blood ([4]; PBS treatment, 96 h): 0.033 ± 0.009 % ID/g | % ID/g ± SD, Kidney ([4]; PBS treatment, 96 h): 0.068 ± 0.014 % ID/g | % ID/g ± SD, Liver ([4]; PBS treatment, 96 h): 0.029 ± 0.011 % ID/g | % ID/g ± SD, Muscle ([4]; PBS treatment, 96 h): 0.030 ± 0.010 % ID/g | % ID/g ± SD, Spleen ([4]; PBS treatment, 96 h): 0.014 ± 0.006 % ID/g | % ID/g ± SD, Tumor ([4]; PBS treatment, 96 h): 0.039 % ID/g and 0.039 ± 0.010 % ID/g | tumor visualization, planar gamma imaging ([4]; bortezomib 2 μg/g 24 hours before, 4 days postinjection): clearly visible | time of peak tumor uptake ([4]; postinjection, pretreated with bortezomib): 96 h | tumor uptake, planar gamma imaging ([4]; pretreated with PBS only): no tumor uptake was evident | % ID/g ± SD, Kidney [5, 16]: 0.146 ± .054 % ID/g | % ID/g ± SD, Liver [5, 16]: 0.052 ± .027 % ID/g | % ID/g ± SD, Muscle [5, 16]: 0.084 ± .012 % ID/g | % ID/g ± SD, Spleen [5, 16]: 0.064 ± .011 % ID/g | % ID/g ± SD, Tumor [5, 16]: 1.200 ± 0.356 % ID/g | tumor visualization ([5]; following bortezomib, by 30 hours after radiopharmaceutical injection): clearly visualized | range of uptake as % ID/g (color bar), SPECT-CT ([6]; 48 hours p.i., following bortezomib): 1.53 % ID/g | tumor imaging ([6]; after bortezomib): allowed imaging | % ID/g ± SD, Kidney [6, 17]: 0.167 ± 0.038 % ID/g | % ID/g ± SD, Liver [6, 17]: 0.0617 ± 0.022 % ID/g | % ID/g ± SD, Muscle [6, 17]: 0.078 ± 0.005 % ID/g | % ID/g ± SD, Spleen [6, 17]: 0.064 ± 0.014 % ID/g | % ID/g ± SD, Tumor [6, 17]: 1.100 ± 0.361 % ID/g | tumor imaging ([7]; after bortezomib): allowed imaging | % ID/g ± SD, Kidney [7, 18]: 0.027 ± 0.003 % ID/g | % ID/g ± SD, Liver [7, 18]: 0.009 ± 0.002 % ID/g | % ID/g ± SD, Muscle [7, 18]: 0.008 ± 0.004 % ID/g | % ID/g ± SD, Spleen [7, 18]: 0.008 ± 0.002 % ID/g | % ID/g ± SD, Tumor [7, 18]: 1.213 ± 0.214 % ID/g

O=c1[nH]c(=O)n([C@@H]2O[C@H](CO)[C@@H](O)[C@@H]2F)cc1[131I] [[^131I]FIAU]
tumor growth [8]: parallel results | tumor growth rate in chimeric tumors ([9]; 10% of tumor cells harbor the EBV-TK, 1.7 mCi): substantially slowed | tumor growth dose response ([9]; EBV-TK expressing tumors, 1 mCi or 3 mCi): increasing effects on tumor growth | tumor growth slope ([9]; TK tumors, 1.6 mCi IV): flattened | tumor growth [10]: regressed | tumor growth rate [11]: diminished | tumor activity concentration scaled to the human ([12]; assuming a 1 gm tumor in the human): 7×10^−4 % ID/g | absorbed dose to the kidneys [12, 19]: 0.2 Gy | absorbed dose to the red marrow [12, 19]: 0.02 Gy | tumor growth ([13]; bortezomib followed 24 hours later by [131I]FIAU): stopped tumor growth | tumor growth curves vs buffer alone ([13]; buffer followed by [131I]FIAU): similar
